Data as given in patent US9624155B2, “Iron (III) citrate, substantially free of beta-iron hydroxide oxide” (Japan Tobacco Inc., priority 2011, dated 2017).

test: Specific surface area by nitrogen gas adsorption (BET); assay type: physicochemical; settings: relative pressure 0.05 to 0.3 (BET surface area)
Method: A specific surface area can be measured by, for example, but is not limited to, BET surface area measurement via nitrogen gas adsorption (relative pressure: 0.05 to 0.3).
Specific surface areas of iron(III) citrates of Comparative Examples 11 and 12 and Examples 1, 4, 5, 6, 7, and 10 to 23 were measured by nitrogen gas adsorption (relative pressure: 0.05 to 0.3) (BET surface area).

O=C([O-])CC(O)(CC(=O)[O-])C(=O)[O-].[Fe+3] [Comparative Example 11, iron(III) citrate] showed a Specific surface area of 0.80 m^2/g.
With O=C([O-])CC(O)(CC(=O)[O-])C(=O)[O-].[Fe+3] [Comparative Example 12, iron(III) citrate] the Specific surface area was 0.62 m^2/g.
For O=C([O-])CC(O)(CC(=O)[O-])C(=O)[O-].[Fe+3] [Example 1, iron(III) citrate], the Specific surface area was 21.8 m^2/g.
For O=C([O-])CC(O)(CC(=O)[O-])C(=O)[O-].[Fe+3] [Example 4, iron(III) citrate], the Specific surface area was 33.4 m^2/g.
Work on O=C([O-])CC(O)(CC(=O)[O-])C(=O)[O-].[Fe+3] [Example 5, Iron(III) citrate] yielded a Specific surface area of 31.0 m^2/g.
O=C([O-])CC(O)(CC(=O)[O-])C(=O)[O-].[Fe+3] [Example 6, Iron(III) citrate] gave a Specific surface area of 30.4 m^2/g.
Work on O=C([O-])CC(O)(CC(=O)[O-])C(=O)[O-].[Fe+3] [Example 7, Iron(III) citrate] yielded a Specific surface area of 29.8 m^2/g.
O=C([O-])CC(O)(CC(=O)[O-])C(=O)[O-].[Fe+3] [Example 10, Iron(III) citrate] gave a Specific surface area of 29.9 m^2/g.
Work on O=C([O-])CC(O)(CC(=O)[O-])C(=O)[O-].[Fe+3] [Example 11, Iron(III) citrate] yielded a Specific surface area of 30.0 m^2/g.
Compound O=C([O-])CC(O)(CC(=O)[O-])C(=O)[O-].[Fe+3] [Example 12, Iron(III) citrate] has a Specific surface area of 30.3 m^2/g.
Work on O=C([O-])CC(O)(CC(=O)[O-])C(=O)[O-].[Fe+3] [Example 13, Iron(III) citrate] yielded a Specific surface area of 29.1 m^2/g.
Compound O=C([O-])CC(O)(CC(=O)[O-])C(=O)[O-].[Fe+3] [Example 14, Iron(III) citrate] has a Specific surface area of 37.9 m^2/g.
Compound O=C([O-])CC(O)(CC(=O)[O-])C(=O)[O-].[Fe+3] [Example 15, Iron(III) citrate] has a Specific surface area of 38.5 m^2/g.
O=C([O-])CC(O)(CC(=O)[O-])C(=O)[O-].[Fe+3] [Example 16, Iron(III) citrate] showed a Specific surface area of 33.7 m^2/g.
In the case of O=C([O-])CC(O)(CC(=O)[O-])C(=O)[O-].[Fe+3] [Example 17, Iron(III) citrate], the Specific surface area was 32.4 m^2/g.
In the case of O=C([O-])CC(O)(CC(=O)[O-])C(=O)[O-].[Fe+3] [Example 18, Iron(III) citrate], the Specific surface area was 39.9 m^2/g.
With O=C([O-])CC(O)(CC(=O)[O-])C(=O)[O-].[Fe+3] [Example 19, Iron(III) citrate] the Specific surface area was 39.8 m^2/g.
O=C([O-])CC(O)(CC(=O)[O-])C(=O)[O-].[Fe+3] [Example 20, Iron(III) citrate] showed a Specific surface area of 33.8 m^2/g.
With O=C([O-])CC(O)(CC(=O)[O-])C(=O)[O-].[Fe+3] [Example 21, Iron(III) citrate] the Specific surface area was 35.5 m^2/g.
O=C([O-])CC(O)(CC(=O)[O-])C(=O)[O-].[Fe+3] [Example 22, Iron(III) citrate] gave a Specific surface area of 32.6 m^2/g.
With O=C([O-])CC(O)(CC(=O)[O-])C(=O)[O-].[Fe+3] [Example 23, Iron(III) citrate] the Specific surface area was 32.8 m^2/g.
